# In EP2508526A1, “Spiroalkene carboxamide derivatives and their use as chemokine receptor modulators” (Ares Trading SA, priority 2011, dated 2012):
# Structures can show the parent of a compound that is named as a salt.
# Target: T1, hCCR2b (Homo sapiens, UniProt P41597)
# T1 sequence (P41597 1-360 isoform P41597-2): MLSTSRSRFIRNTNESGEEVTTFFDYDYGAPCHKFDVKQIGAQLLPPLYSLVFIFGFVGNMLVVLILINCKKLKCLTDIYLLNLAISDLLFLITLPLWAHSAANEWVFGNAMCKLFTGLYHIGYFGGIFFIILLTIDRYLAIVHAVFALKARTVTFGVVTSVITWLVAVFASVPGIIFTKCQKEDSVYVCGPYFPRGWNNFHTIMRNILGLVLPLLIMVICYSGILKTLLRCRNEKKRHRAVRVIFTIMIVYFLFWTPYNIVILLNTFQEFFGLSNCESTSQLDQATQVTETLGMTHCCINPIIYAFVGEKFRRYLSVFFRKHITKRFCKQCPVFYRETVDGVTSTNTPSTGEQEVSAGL
# Assay: CCR2 binding assay ([125I]MCP-1, SPA, CHO cell membranes)
# Design: expressed in transfected cells; host or cells: CHO cells (membrane preparation)
# Conditions: membranes from CHO cells expressing hCCR2b, 50 pM [125I]MCP-1; read-out: Binding hCCR2 (Ki)
# Protocol: Membranes were prepared from CHO cells expressing mCCR2b or hCCR2b for use in ligand binding studies. Cells were suspended in 50mM Tris-HCL, pH 7.4, 2 mM EDTA, 250 mM Sucrose and 1x Complete EDTA-free protease inhibitor cocktail (Roche) (Buffer A), and disrupted at 4°C by N2 decompression using a cell disruption bomb (Parr Instrument). Following centrifugation at 200 RCF for 10 min at 4°C, the supernatant was suspended in buffer A and centrifuged again at 19000 RPM (RCSC rotor SS34 code 05 Sorvall Instruments DUPONT) for 90 min at 4°C. The pellet was then suspended in 10 mM HEPES, pH 7.4, 1 mM EDTA, 250 mM Sucrose, and 1x Complete EDTA-free protease inhibitor cocktail (Buffer B) and homogenized using a potter. Membranes were flash frozen in liquid N2 and stored at -80°C. [125I] Monocyte Chemoattractant Protein -1 (MCP-1) (25µCi; Perkin Elmer) was added to test compounds in DMSO (1% final). Membranes and WGA SPA beads (GE Healthcare) were added to give a final volume of 100 µl in 96-well plates with assay concentrations of 50 pM or 100 pM [125I]Monocyte Chemoattractant Protein -1 (respectively for hCCR2b or mCCR2b), 50 mM HEPES, pH 7.4, 5 mM MgCl2, 1 mM CaCl2, 0.1% BSA, 1-5 µg/well of membranes and 100 µg/well of WGA SPA beads. Binding was performed for 90 min at RT with strong agitation of speed 5 (Heidolph Titramax 100 SCITEC) and bound radioactivity was measured on a PerkinElmer 1450 MicroBeta counter. Specific binding was calculated by subtracting remaining radioactivity in the presence of 1000-fold excess of unlabeled compound. Binding data were analyzed using the Genedata Screener® software.
row,SMILES,Ki [nM]
1,"CCN1CCC2(CC1)OC(=O)C(C)=C2C(=O)N1CCN(c2cc(OC)cc(C(F)(F)F)c2)CC1 [Compound 87, 8-ethyl-4-({4-[3-methoxy-5-(trifluoromethyl)phenyl]piperazin-1-yl}carbonyl)-3-methyl-1-oxa-8-azaspiro[4.5]dec-3-en-2-one]",< 50
2,"COCCCN1CCC2(CC1)OC(=O)C(C)=C2C(=O)N1CCc2ccc(C(F)(F)F)cc2C1 [Compound 18, 8-(3-methoxypropyl)-3-methyl-4-{[7-(trifluoromethyl)-3,4-dihydroisoquinolin-2(1H)-yl]carbonyl}-1-oxa-8-azaspiro[4.5]dec-3-en-2-one]",< 50
3,"COc1cccc(CCN2CCC3(CC2)OC(=O)C(C)=C3C(=O)N2CCN(c3cccc(C(F)(F)F)c3)CC2)c1 [Compound 8, 8-[2-(3-methoxyphenyl)ethyl]-3-methyl-4-({4-[3-(trifluoromethyl)pheny)]piperazin-1-yl}carbonyl)-1-oxa-8-azaspiro[4.5]dec-3-en-2-one, dihydrochloride salt]",< 50
4,"CC1=C(C(=O)N2CCc3ccc(C(F)(F)F)cc3C2)C2(CCN(CCN3CCOCC3)CC2)OC1=O [Compound 19, 3-methyl-8-(2-morpholin-4-ylethyl)-4-{[7-(trifluoromethyl)-3,4-dihydroisoquinolin-2(1H)-yl]carbonyl}-1-oxa-8-azaspiro[4.5]dec-3-en-2-one]",< 50
5,"CC1=C(C(=O)N2CCc3ccc(C(F)(F)F)cc3C2)C2(CCN(C3CCOC(C)C3)CC2)OC1=O (stereo not shown) [Compound 36, 3-methyl-8-(2-methyltetrahydro-2H-pyran-4-yl)-4-{[7-(trifluoromethyl)-3,4-dihydroisoquinolin-2(1H)-yl]carbonyl}-1-oxa-8-azaspiro[4.5]dec-3-en-2-one]",< 50
6,"CCN1CCC2(CC1)OC(=O)C(C)=C2C(=O)N1CCN(c2cc(C(F)(F)F)ccn2)CC1 [Compound 70, 8-ethyl-3-methyl-4-({4-[4-(trifluoromethyl)pyridin-2-yl]piperazin-1-yl}carbonyl)-1-oxa-8-azaspiro[4.5]dec-3-en-2-one]",< 50
7,"CC1=C(C(=O)N2CCc3ncc(C(F)(F)F)cc3C2)C2(CCN(CC3CCOC3)CC2)OC1=O (stereo not shown) [Compound 46, 3-methyl-8-(tetrahydrofuran-3-ylmethyl)-4-{[3-(trifluoromethyl)-7,8-dihydro-1,6-naphthyridin-6(5H)-yl]carbonyl}-1-oxa-8-azaspiro[4.5]dec-3-en-2-one]",< 50
8,"CC1=C(C(=O)N2CCN(c3cccc(C(F)(F)F)c3)CC2)C2(CCN(CCc3cccc(Cl)c3)CC2)OC1=O [Compound 15, 8-[2-(3-chlorophenyl)ethyl]-3-methyl-4-({4-[3-(trifluoromethyl)phenyl]piperazin-1-yl}carbonyl)-1-oxa-8-azaspiro[4.5]dec-3-en-2-one]",< 50
9,"CCN1CCC2(CC1)OC(=O)C(C)=C2C(=O)N1CCN(CCc2ccc(F)cc2)CC1 [Compound 58, 8-ethyl-4-({4-[2-(4-fluorophenyl)ethyl]piperazin-1-yl}carbonyl)-3-methyl-1-oxa-8-azaspiro[4.5]dec-3-en-2-one]",100 to 500
10,"CCN1CCC2(CC1C)OC(=O)C(C)=C2C(=O)N1CCc2ccc(C(F)(F)F)cc2C1 (stereo not shown) [Compound 79, 8-ethyl-3,7-dimethyl-4-{[7-(trifluoromethyl)-3,4-dihydroisoquinolin-2(1H)-yl]carbonyl}-1-oxa-8-azaspiro[4.5]dec-3-en-2-one]",< 50
11,"CC1=C(C(=O)N2CCc3ccc(C(F)(F)F)cc3C2)C2(CCN(C3CCCCC3)CC2)OC1=O [Compound 29, 8-cyclohexyl-3-methyl-4-{[7-(trifluoromethyl)-3,4-dihydroisoquinolin-2(1H)-yl]carbonyl}-1-oxa-8-azaspiro[4.5]dec-3-en-2-one]",< 50
12,"CCN1CCC2(CC1)OC(=O)C(C)=C2C(=O)N1CCc2cc(C(F)(F)F)ccc2C1 [Compound 54, 8-ethyl-3-methyl-4-{[6-(trifluoromethyl)-3,4-dihydroisoquinolin-2 (1H)-yl]carbonyl}-1-oxa-8-azaspiro[4.5]dec-3-en-2-one]",< 50
13,"CC1=C(C(=O)N2CCc3ccc(C(F)(F)F)cc3C2)C2(CCN(C3CCCS(=O)(=O)C3)CC2)OC1=O (stereo not shown) [Compound 39, 8-(1,1-dioxidotetrahydro-2H-thiopyran-3-yl)-3-methyl-4-{[7-(trifluoromethyl)-3,4-dihydroisoquinolin-2(1H)-yl]carbonyl}-1-oxa-8-azaspiro[4.5]dec-3-en-2-one]",50 to 100
14,"CC1=C(C(=O)N2CCc3ccc(C(F)(F)F)cc3C2)C2(CCN(C3CCOC(C)(C)C3)CC2)OC1=O (stereo not shown) [Compound 35, 8-(2,2-dimethyltetrahydro-2H-pyran-4-yl)-3-methyl-4-{[7-(trifluoromethyl)-3,4-dihydroisoquinolin-2(1H)-yl]carbonyl}-1-oxa-8-azaspiro[4.5]dec-3-en-2-one]",< 50
15,"CCN1CCC2(C1)OC(=O)C(C)=C2C(=O)N1CCc2ccc(C(F)(F)F)cc2C1 (stereo not shown) [Compound 42, 7-ethyl-3-methyl-4-{[7-(trifluoromethyl)-3,4-dihydroisoquinolin-2(1H)-yl]carbonyl}-1-oxa-7-azaspiro[4.4]non-3-en-2-one]",< 50

# More lines, now with the values ahead:
row,Ki [nM],SMILES
1,100 to 500,"CC1=C(C(=O)N2CCN(c3cccc(C(F)(F)F)c3)CC2)C2(CCN(CC(=O)c3ccccc3)CC2)OC1=O [Compound 108, 3-methyl-8-(2-oxo-2-phenylethyl)-4-({4-[3-(trifluoromethyl)phenyl]piperazin-1-yl}carbonyl)-1-oxa-8-azaspiro[4.5]dec-3-en-2-one]"
2,500 to 2000,"CC1=C(C(=O)N2CCN(c3cccc(Cl)c3)CC2)C2(CCN(C)CC2)OC1=O [Compound 112, 4-{[4-(3-chlorophenyl)piperazin-1-yl]carbonyl}-3,8-dimethyl-1-oxa-8-azaspiro[4.5]dec-3-en-2-one]"
3,100 to 500,"CC1=C(C(=O)N2CCN(c3cccc(C(F)(F)F)c3)CC2)C2(CCNCC2)OC1=O [Example 1, 3-methyl-4-({4-[3-(trifluoromethyl)phenyl]piperazin-1-yl}carbonyl)-1-oxa-8-azaspiro[4.5]dec-3-en-2-one, dihydrochloride salt]"
4,100 to 500,"CCN1CCC2(CC1)OC(=O)C(C)=C2C(=O)N1CCCN(c2ccc(C(F)(F)F)cc2)CC1 [Compound 91, 8-ethyl-3-methyl-4-({4-[4-(trifluoromethyl)phenyl]-1,4-diazepan-1-yl}carbonyl)-1-oxa-8-azaspiro[4.5]dec-3-en-2-one]"
5,< 50,"CC1=C(C(=O)N2CCN(c3cccc(C(F)(F)F)c3)CC2)C2(CCN(C(C)C)C2)OC1=O (stereo not shown) [Compound 117, 7-isopropyl-3-methyl-4-({4-[3-(trifluoromethyl)phenyl]piperazin-1-yl}carbonyl)-1-oxa-7-azaspiro[4.4]non-3-en-2-one]"
6,< 50,"CC1=C(C(=O)N2CCN(c3cccc(C(F)(F)F)c3)CC2)C2(CCN(CC(C)C)CC2)OC1=O [Compound 103, 8-isobutyl-3-methyl-4-({4-[3-(trifluoromethyl)phenyl]piperazin-1-yl}carbonyl)-1-oxa-8-azaspiro[4.5]dec-3-en-2-one]"
7,< 50,"COCCCN1CCC2(CC1)OC(=O)C(C)=C2C(=O)N1CCN(c2cccc(C(F)(F)F)c2)CC1 [Example 2, 8-(3-methoxypropyl)-3-methyl-4-({4-[3-(trifluoromethyl)phenyl]piperazin-1-yl}carbonyl)-1-oxa-8-azaspiro[4.5]dec-3-en-2-one]"
